Active and inactive are the calls of the source. No cut-off for these calls is given here.
Experiments:
Candida albicans [1] = test: Anti-virulence activity against Candida albicans SC5314 assessed as inhibition of fungal filamentation by measuring reduction in hyphae formation in GlcNAc medium upto 10 uM incubated for 3 to 5 days by stereomicroscopic analysis; assay type: functional, organism-based; conditions: time 3-5 day
Candida albicans [2] = test: Anti-virulence activity against Candida albicans SC5314 assessed as inhibition of fungal filamentation by measuring reduction in hyphae formation in SLAD medium upto 10 uM incubated for 3 to 5 days by stereomicroscopic analysis; assay type: functional, organism-based; conditions: time 3-5 day
Candida albicans [3] = test: Anti-virulence activity against Candida albicans SC5314 assessed as inhibition of fungal filamentation by measuring reduction of hyphae formation in GlcNAc medium at 1.3 uM incubated for 3 to 5 days by stereomicroscopic analysis; assay type: functional, organism-based; conditions: time 3-5 day
Candida albicans [4] = test: Anti-virulence activity against Candida albicans SC5314 assessed as inhibition of fungal filamentation by measuring reduction of hyphae formation in Spider medium at 1.3 uM incubated for 3 to 5 days by stereomicroscopic analysis; assay type: functional, organism-based; conditions: time 3-5 day
Candida albicans [5] = test: Anti-virulence activity against Candida albicans SC5314 assessed as inhibition of fungal filamentation by measuring reduction of hyphae formation in SLAD medium at 2.5 uM incubated for 3 to 5 days by stereomicroscopic analysis; assay type: functional; conditions: time 3-5 day
Candida albicans [6] = test: Anti-virulence activity against Candida albicans SC5314 assessed as inhibition of fungal filamentation by measuring reduction of hyphae formation in SLAD medium at 1.3 uM incubated for 3 to 5 days by stereomicroscopic analysis; assay type: functional, organism-based; conditions: time 3-5 day
Candida albicans [7] = test: Anti-virulence activity against Candida albicans SC5314 assessed as inhibition of fungal filamentation by measuring reduction in hyphae formation in Spider medium upto 10 uM incubated for 3 to 5 days by stereomicroscopic analysis; assay type: functional, organism-based; conditions: time 3-5 day
Candida albicans [8] = test: (§1) Anti-virulence activity against 53-75 RFP expressing cells of Candida albicans M137 in hind brain of zebra fish embryo disseminated candidiasis model assessed as reduction in mortality by measuring embryo survival rate treated at 1 hr post-infection and measured on day 4 post infection relative to control; assay type: functional; conditions: time 4 day
Candida albicans [9] = test: Anti-virulence activity against Candida albicans SC5314 assessed as inhibition of fungal filamentation by measuring reduction of hyphae formation in GlcNAc medium at 2.5 uM incubated for 3 to 5 days by stereomicroscopic analysis; assay type: functional; conditions: time 3-5 day
Candida albicans [10] = test: Anti-virulence activity against 120-140 RFP expressing cells of Candida albicans M137 infected in hind brain of zebra fish embryo disseminated candidiasis model assessed as inhibition of fungal filamentation by measuring reduction of fungal hyphae formation at 10 uM in presence of 0.25 ug/ml nystatin measured at 120 hpf; assay type: functional
[11] = Toxicity in zebrafish embryos assessed as toxic responses at 200 uM treated at 6 hpf and measured at 120 hpf by stereomicroscopic analysis; set-up: species or system Danio rerio; conditions: in vivo, 24 h
Candida albicans [12] = test: Anti-virulence activity against Candida albicans SC5314 assessed as inhibition of fungal filamentation by measuring reduction of hyphae formation in RPMI medium upto 10 uM incubated for 3 to 5 days by stereomicroscopic analysis; assay type: functional, organism-based; conditions: time 3-5 day
Candida albicans [13] = test: Anti-virulence activity against 53-75 RFP expressing cells of Candida albicans M137 in hind brain of zebra fish embryo disseminated candidiasis model assessed as inhibition of fungal filamentation by measuring reduction of hyphae formation in the hind brain at 2.5 to 10 uM treated at 1 hr post-infection and measured on day 4 post infection by fluorescence microscopy; assay type: functional; set-up: scale not given: the % may be the effect or the level left; conditions: dose 2.5-10 µM, time 4 day
Candida albicans [14] = test: Anti-virulence activity against Candida albicans SC5314 assessed as inhibition of fungal filamentation by measuring reduction in hyphae formation in YPS medium upto 10 uM incubated for 3 to 5 days by stereomicroscopic analysis; assay type: functional, organism-based; conditions: time 3-5 day
Candida albicans [15] = test: Anti-virulence activity against 120-140 RFP expressing cells of Candida albicans M137 infected in hind brain of zebra fish embryo disseminated candidiasis model assessed as embryo mortality at 10 uM measured at 120 hpf; assay type: functional
Candida albicans [16] = test: Indifferent antifungal activity against Candida albicans SC5314 assessed as fractional inhibitory concentration index incubated for 24 hrs in RPMI medium in presence of nystatin by checkerboard assay; assay type: functional
Candida albicans [17] = test: as §1, with “(reference value: 10%)” for “relative to control”; assay type: functional; conditions: time 4 day
Candida albicans [18] = test: Anti-virulence activity against 120-140 RFP expressing cells of Candida albicans M137 infected in hind brain of zebra fish embryo disseminated candidiasis model assessed as embryo survival rate upto 10 uM in presence of 0.13 to 1 ug/ml nystatin measured at 120 hpf; assay type: functional; conditions: up to 10 µM
Candida albicans [19] = test: Antifungal activity against Candida albicans SC5314 assessed as inhibition of fungal growth incubated for 24 hrs by broth microdilution assay; assay type: functional
[20] = Toxicity against zebrafish embryo infected with 53-75 RFP expressing cells of Candida albicans M137 assessed as mortality at 2.5 to 10 uM treated at 1 hr post-infection and measured on day 4 post-infection; set-up: species or system Danio rerio; conditions: 96 h, dose 2.5-10 µM, time 4 day
Candida albicans [21] = test: Anti-virulence activity against Candida albicans SC5314 assessed as inhibition of fungal filamentation by measuring reduction in hyphae formation in YPS plus uridine medium upto 10 uM incubated for 3 to 5 days by stereomicroscopic analysis; assay type: functional, organism-based; conditions: time 3-5 day
Candida albicans [22] = test: Anti-virulence activity against Candida albicans SC5314 assessed as inhibition of fungal filamentation by measuring reduction of hyphae formation in RPMI medium at 1.3 uM incubated for 3 to 5 days by stereomicroscopic analysis; assay type: functional, organism-based; conditions: time 3-5 day
[23] = Reduction of nystatin resistance against Candida albicans SC5314 assessed as nystatin MIC at 5 to 10 uM measured after consecutive treatment with nystatin for 12 days; assay type: functional; conditions: SC5314, 288 h, dose 5-10 µM
[24] = Toxicity in zebrafish embryos assessed as mortality treated at 6 hpf and measured at 120 hpf by stereomicroscopic analysis; set-up: species or system Danio rerio; conditions: in vivo
Candida albicans [25] = test: as §1, with “activity” for “activity against”, “at 48 hrs” for “on day 4”, “(reference value: 40%)” for “relative to control”; assay type: functional
Candida albicans [26] = test: Anti-virulence activity against Candida albicans SC5314 assessed as inhibition of fungal filamentation by measuring reduction in hyphae formation in Lee medium upto 10 uM incubated for 3 to 5 days by stereomicroscopic analysis; assay type: functional, organism-based; conditions: time 3-5 day
Candida albicans [27] = test: Anti-virulence activity against Candida albicans SC5314 assessed as inhibition of fungal filamentation by measuring reduction of hyphae formation in YPS medium at 2.5 uM incubated for 3 to 5 days by stereomicroscopic analysis; assay type: functional; conditions: time 3-5 day
Candida albicans [28] = test: Anti-virulence activity against Candida albicans SC5314 assessed as inhibition of fungal filamentation by measuring reduction of hyphae formation in YPS plus uridine medium at 1.3 uM incubated for 3 to 5 days by stereomicroscopic analysis; assay type: functional, organism-based; conditions: time 3-5 day
Candida albicans [29] = test: Anti-virulence activity against Candida albicans SC5314 assessed as inhibition of fungal filamentation by measuring reduction of hyphae formation in Lee medium at 1.3 uM incubated for 3 to 5 days by stereomicroscopic analysis; assay type: functional, organism-based; conditions: time 3-5 day
Candida albicans [30] = test: Anti-virulence activity against Candida albicans SC5314 assessed as inhibition of fungal filamentation by measuring reduction of hyphae formation in YPS medium at 1.3 uM incubated for 3 to 5 days by stereomicroscopic analysis; assay type: functional, organism-based; conditions: time 3-5 day
Candida albicans [31] = test: Anti-virulence activity against Candida albicans SC5314 assessed as inhibition of fungal filamentation by measuring reduction of hyphae formation in Spider medium at 2.5 uM incubated for 3 to 5 days by stereomicroscopic analysis; assay type: functional; conditions: time 3-5 day
Candida albicans [32] = test: Anti-virulence activity against 120-140 RFP expressing cells of Candida albicans M137 infected in hind brain of zebra fish embryo disseminated candidiasis model assessed as embryo survival rate at 10 uM in presence of 0.25 ug/ml nystatin measured at 120 hpf; assay type: functional
Candida albicans [33] = test: Anti-virulence activity against 120-140 RFP expressing cells of Candida albicans M137 expressing infected in hind brain of zebra fish embryo disseminated candidiasis model assessed as inhibition of fungal filamentation by measuring reduction of hyphae formation at 10 uM in presence of 1 ug/ml nystatin measured at 120 hpf; assay type: functional; set-up: scale not given: the % may be the effect or the level left

Compound: Nc1nnnn1CCC12CC3CC(CC(C3)C1)C2
- Activity (Candida albicans [1]): Active
- Activity (Candida albicans [2]): Active
- Activity (Candida albicans [3]): Active
- Activity (Candida albicans [4]): Active
- inhibition at 2.5 µM (Candida albicans [5]): 100%
- Activity (Candida albicans [6]): Active
- Activity (Candida albicans [7]): Active
- fold change (FC) (Candida albicans [8]): 7
- inhibition at 2.5 µM (Candida albicans [9]): 100%
- inhibition in vivo at 10 µM (Candida albicans [10]): ≤ 30%
- Activity [11]: Non-Toxic
- Activity (Candida albicans [12]): Active
- Activity (Candida albicans [13]): 100%
- Activity (Candida albicans [14]): Active
- mortality at 10 µM (Candida albicans [15]): 80%
- fractional inhibitory concentration index (FICI) (Candida albicans [16]): 1
- Survival (Candida albicans [17]): 70%
- Survival (Candida albicans [18]): <=80%
- MIC (Candida albicans [19]): > 200 µM
- Activity [20]: Non-Toxic
- Activity (Candida albicans [21]): Active
- Activity (Candida albicans [22]): Active
- MIC [23]: 1 µg/mL
- LC50 [24]: > 200 µM
- Survival (Candida albicans [25]): 50%
- Activity (Candida albicans [26]): Active
- inhibition at 2.5 µM (Candida albicans [27]): 100%
- Activity (Candida albicans [28]): Active
- Activity (Candida albicans [29]): Active
- Activity (Candida albicans [30]): Active
- inhibition at 2.5 µM (Candida albicans [31]): 100%
- survival at 10 µM (Candida albicans [32]): ≤ 30%
- Activity (Candida albicans [33]): 100%

From ChEMBL document CHEMBL5143574, “Unraveling the anti-virulence potential and antifungal efficacy of 5-aminotetrazoles using the zebrafish model of disseminated candidiasis” (Eur J Med Chem, 2022)
